For one experiment, the target named is T1, XIAP-BIR3 (Homo sapiens, UniProt P98170).
T1 construct: XIAP-BIR3; purchased Reaction Biology APT-11-374
The experiment is described as follows: XIAP-BIR3 fluorescence polarization binding assay. The settings on record: FP, probe AbuRPFK-5FAM (SM5F) 5 nM, XIAP-BIR3 40 nM, 60 min at 25° C. The essentials:
(§1)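 Fluorescence polarization competition using 5-carboxyfluorescein-labelled peptide probe AbuRPFK-5FAM; protein and compound preincubated 15 min, probe added, then 60 min at 25° C.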

The next experiment deals with T2, cIAP1-BIR3 (Homo sapiens, UniProt Q13490).
T2 construct: cIAP1-BIR3; purchased Reaction Biology APT-11-370
The experiment is described as follows: cIAP1-BIR3 fluorescence polarization binding assay. The conditions noted are these: FP, probe AbuRPFK-5FAM (SM5F) 5 nM, cIAP1-BIR3 15 nM, 60 min at 25° C. Summed up:
as §1

In another experiment the target is T3, cIAP2-BIR3 (Homo sapiens, UniProt Q13489).
T3 construct: cIAP2-BIR3; purchased Reaction Biology APT-11-372
The experiment is described as follows: cIAP2-BIR3 fluorescence polarization binding assay. The settings on record: FP, probe AbuRPFK-5FAM (SM5F) 5 nM, cIAP2-BIR3 80 nM, 60 min at 25° C. Summed up: as §1

T3 sequence (Q13489 238-349 limits assumed): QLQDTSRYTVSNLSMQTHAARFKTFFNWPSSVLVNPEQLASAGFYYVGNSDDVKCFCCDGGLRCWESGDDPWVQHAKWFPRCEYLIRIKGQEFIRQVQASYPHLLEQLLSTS
T1 sequence (P98170 241-356 limits assumed): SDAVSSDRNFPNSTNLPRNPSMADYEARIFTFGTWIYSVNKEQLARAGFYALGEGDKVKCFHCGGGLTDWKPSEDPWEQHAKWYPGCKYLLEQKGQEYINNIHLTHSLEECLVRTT
T2 sequence (Q13490 253-363 limits assumed): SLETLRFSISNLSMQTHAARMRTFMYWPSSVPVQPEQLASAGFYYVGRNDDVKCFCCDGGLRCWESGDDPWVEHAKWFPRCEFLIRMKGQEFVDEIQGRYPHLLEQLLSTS

Take `CN[C@@H](C)C(=O)N[C@H](C(=O)N1CCC[C@H]1C(=O)N[C@@H]1CCc2c(-c3cccc4c3CC[C@H]4NC(=O)[C@@H]3CCCN3C(=O)[C@@H](NC(=O)[C@H](C)NC)C(C)C)cccc21)C(C)C` [Compound V-G, (2S)-1-[(2S)-3-methyl-2-[(2S)-2-(methylamino)propanamido]butanoyl]-N-[(1R,1′R)-1′-[(2S)-1-[(2S)-3-methyl-2-[(2S)-2-(methylamino)propanamido]butanoyl]pyrrolidine-2-amido]-1H,1′H,2H,2′H,3H,3′H-[4,4′-biinden]-1-yl]pyrrolidine-2-carboxamide]: the IC50 fell in the range of 10 to 100 nM at XIAP-BIR3, 1 to 10 nM on cIAP1-BIR3 and 10 to 100 nM on cIAP2-BIR3.

Regarding `CN[C@@H](C)C(=O)N[C@H](C(=O)N1CCC[C@H]1C(=O)N[C@@H]1CCc2c(-c3cccc4c3CC[C@H]4NC(=O)[C@@H]3CCCN3C(=O)[C@@H](NC(=O)[C@H](C)NC)C3CCCCC3)cccc21)C1CCCCC1` [Compound V, (2S)-1-[(2S)-2-cyclohexyl-2-[(2S)-2-(methylamino)propanamido]acetyl]-N-[(1R,1′R)-1′-[(2S)-1-[(2S)-2-cyclohexyl-2-[(2S)-2-(methylamino)propanamido]acetyl]pyrrolidine-2-amido]-1H,1′H,2H,2′H,3H,3′H-[4,4′-biinden]-1-yl]pyrrolidine-2-carboxamide], the IC50 is 10 to 100 nM on XIAP-BIR3, 1 to 10 nM at cIAP1-BIR3 and 10 to 100 nM at cIAP2-BIR3.

As to `CN[C@@H](C)C(=O)N[C@H](C(=O)N1CCC[C@H]1C(=O)N[C@@H]1CCCc2cc(OCCOCCOc3ccc4c(c3)CCC[C@H]4NC(=O)[C@@H]3CCCN3C(=O)[C@@H](NC(=O)[C@H](C)NC)C3CCCCC3)ccc21)C1CCCCC1` [Compound II-D, (2S)-1-[(2S)-2-cyclohexyl-2-[(2S)-2-(methylamino)propanamido]acetyl]-N-[(1R)-6-[2-(2-[[(5R)-5-[(2S)-1-1(2S)-2-cyclohexyl-2-[(2S)-2-(methylamino)propanamido]acetyl]pyrrolidine-2-amido]-5,6,7,8-tetrahydronaphthalen-2-yl]oxy]ethoxy)ethoxyl-1,2,3,4-tetrahydronaphthalen-1-yl]pyrrolidine-2-carboxamide Formic Acid], the IC50 is more than 1000 nM at XIAP-BIR3, 1 to 10 nM at cIAP1-BIR3 and 10 to 100 nM on cIAP2-BIR3.

For `CN[C@@H](C)C(=O)N[C@H](C(=O)N1CCC[C@H]1C(=O)N[C@@H]1CCCc2c(OCCOCCOc3cccc4c3CCC[C@H]4NC(=O)[C@@H]3CCCN3C(=O)[C@@H](NC(=O)[C@H](C)NC)C(C)C)cccc21)C(C)C` [Compound II-A, (2S)-1-[(2S)-3-Methyl-2-[(2S)-2-(methylamino)propanamido]butanoyl]-N-[(1R)-5-[2-(2-{[(5R)-5-[(2S)-1-[(2S)-3-methyl-2-[(2S)-2-(methylamino)propanamido]butanoyl]pyrrolidine-2-amido]-5,6,7,8-tetrahydronaphthalen-1-yl]oxy}ethoxy)ethoxy]-1,2,3,4-tetrahydronaphthalen-1-yl]pyrrolidine-2-carboxamide], the IC50 at XIAP-BIR3 is 100 to 1000 nM; on cIAP1-BIR3 it was 1 to 10 nM; at cIAP2-BIR3, 1 to 10 nM.

In the case of `CN[C@@H](C)C(=O)N[C@H](C(=O)N1CCC[C@H]1C(=O)N[C@@H]1CCCc2c(-c3cccc(-c4cccc5c4CCC[C@H]5NC(=O)[C@@H]4CCCN4C(=O)[C@@H](NC(=O)[C@H](C)NC)C4CCCCC4)c3)cccc21)C1CCCCC1` [III-A, (2S)-1-[(2S)-2-Cyclohexyl-2-[(2S)-2-(methylamino)propanamido]acetyl]-N-[(1R)-5-(3-[(5R)-5-[(2S)-1-[(2S)-2-cyclohexyl-2-[(2S)-2-(methylamino)propanamido]acetyl]pyrolidine-2-amido]-5,6,7,8-tetrahydronaphthalen-1-yl]phenyl)-1,2,3,4-tetrahydronaphthalen-1-yl]pyrrolidine-2-carboxamide], the IC50 on XIAP-BIR3 lay within 10 to 100 nM; at cIAP1-BIR3 it was 1 to 10 nM; on cIAP2-BIR3, 10 to 100 nM.

Regarding `CN[C@@H](C)C(=O)N[C@H](C(=O)N1C[C@@H](O)C[C@H]1C(=O)N[C@@H]1CCCc2c(-c3cccc4c3CCC[C@H]4NC(=O)[C@@H]3C[C@H](O)CN3C(=O)[C@@H](NC(=O)[C@H](C)NC)C3CCCCC3)cccc21)C1CCCCC1` [Compound V-L, (2S,4S)-1-[(2S)-2-cyclohexyl-2-[(2S)-2-(methylamino)propanamido]acetyl]-N-[(5R,5′R)-5′-[(2S,4S)-1-[(2S)-2-cyclohexyl-2-[(2S)-2-(methylamino)propanamido]acetyl]-4-hydroxypyrrolidine-2-amido]-5H,5′H,6H,6′H,7H,7′H,8H,8′H-[1,1′-binaphthalen]-5-yl]-4-hydroxypyrrolidine-2-carboxamide], the IC50 on XIAP-BIR3 lay in the range of 10 to 100 nM; on cIAP1-BIR3, 1 to 10 nM; at cIAP2-BIR3, 10 to 100 nM.

As to `CN[C@@H](C)C(=O)N[C@@H](C)C(=O)N1CCC[C@H]1C(=O)N[C@@H]1CCOc2c(-c3cccc4c3OCC[C@H]4NC(=O)[C@@H]3CCCN3C(=O)[C@H](C)NC(=O)[C@H](C)NC)cccc21` [Compound V-A, (2S)-1-[(2S)-2-[(2S)-2-(methylamino)propanamido]propanoyl]-N-[(4R)-8-[(4R)-4-[(2S)-1-[(2S)-2-[(2S)-2-(methylamino)propanamido]propanoyl]pyrrolidine-2-amido]-3,4-dihydro-2H-1-benzopyran-8-yl]-3,4-dihydro-2H-1-benzopyran-4-yl]pyrrolidine-2-carboxamide], the IC50 lay in the range of 100 to 1000 nM on XIAP-BIR3, 1 to 10 nM on cIAP1-BIR3 and 10 to 100 nM at cIAP2-BIR3.

With `CN[C@@H](C)C(=O)N[C@H](C(=O)N1CCC[C@H]1C(=O)N[C@@H]1CCCc2c(Nc3cccc4c3CCC[C@H]4NC(=O)[C@@H]3CCCN3C(=O)[C@@H](NC(=O)[C@H](C)NC)C(C)C)cccc21)C(C)C` [Compound VI-B, (S)-1-(methyl-L-alanyl-L-valyl)-N—((R)-5-(((R)-5-((S)-1-(methyl-L-alanyl-L-valyl)pyrolidine-2-carboxamido)-5,6,7,8-tetrahydronaphthalen-1-yl)amino)-1,2,3,4-tetrahydronaphthalen-1-yl)pyrrolidine-2-carboxamide], the results for the IC50 at XIAP-BIR3, on cIAP1-BIR3 and at cIAP2-BIR3 were 10 to 100 nM, 1 to 10 nM and 10 to 100 nM, respectively.

As to `CN[C@@H](C)C(=O)N[C@H](C(=O)N1CCC[C@H]1C(=O)N[C@@H]1CCCc2c(-c3ccc(-c4cccc5c4CCC[C@H]5NC(=O)[C@@H]4CCCN4C(=O)[C@@H](NC(=O)[C@H](C)NC)C(C)C)cc3)cccc21)C(C)C` [III-N, (2S)-1-[(2S)-3-methyl-2-[(2S)-2-(methylamino)propanamido]butanoyl]-N-[(1R)-5-[4-[(5R)-5-[(2S)-1-[(2S)-3-methyl-2-[(2S)-2-(methylamino)propanamido]butanoyl]pyrolidine-2-amido]-5,6,7,8-tetrahydronaphthalen-1-yl]phenyl]-1,2,3,4-tetrahydronaphthalen-1-yl]pyrrolidine-2-carboxamide], the IC50 on XIAP-BIR3 was 10 to 100 nM; on cIAP1-BIR3, 1 to 10 nM; on cIAP2-BIR3, 10 to 100 nM.

The values are drawn from patent US20220220152A1, “BIVALENT ANTAGONISTS OF INHIBITORS OF APOPTOSIS PROTEINS” (Hepagene Therapeutics (HK) Limited, priority 2019, published 2022).
